{"source": "paper PMC5665883", "about": "“Antithrombotic properties of JJ1, a potent and novel thrombin inhibitor” (Scientific Reports, 2017)", "key": {"[1]": {"test": "FeCl3-induced arterial thrombosis model", "assay_type": "in vivo, C57BL/6 mice", "settings": "mice, i.v.", "description": "The FeCl3-induced thrombosis mouse model was established as previously described. Male C57BL/6 mice were fasted overnight and were administered JJ1 in DMSO by intravenous injection. Then, mice were anesthetized using 3% isoflurane (Forane®, Choongwae Pharma. Corp., Seoul, Korea) and injected intravenously with 0.1 mL 0.1% rhodamine 6 G (Sigma). A testicular artery (200 μm in diameter) was carefully exposed and a cotton thread (200 μm in diameter) saturated with 0.25 mol/L FeCl3 was applied to the adventitial surface. After 5 min, the cotton thread was removed, and the wound was flushed with saline solution. Thrombus formation was monitored at 35 °C by 3-dimensional imaging as previously described. The size and time of thrombus formation were monitored, and the findings were scored as follows: no thrombus, 0; small thrombus (50 μm × 75 μm), 1; medium-sized thrombus (100 μm × 150 μm), 2; large thrombus (200 μm × 300 μm), 3. The time from FeCl3-mediated endothelial injury to occlusion of the testicular artery by a large thrombus was measured."}, "[2]": {"test": "In vivo tail bleeding time", "design": "species or system C57BL/6 mice", "settings": "mice, i.v. injection, 1 h after administration", "description": "Tail bleeding times were measured by using the method of Dejana et al.[63],[64]. Briefly, C57BL/6 mice were fasted overnight prior to the experiments. One hour after the i.v. administration of JJ1, the tails of the mice were transected at 2 mm from their tips. The bleeding time was defined as the time elapsed until the bleeding stopped. Bleeding times exceeding 15 min were recorded as lasting for 15 min."}, "[3]": {"target": "Trypsin", "test": "Chromogenic substrate assay, Ki (Dixon)", "assay_type": "biochemical, human", "settings": "Trypsin; mean ± SD (n = 5)", "description": "Chromogenic substrate assays were performed using a Labsystems IEMS (Cergy Pontoise, France) microtiter plate reader. K i values were calculated according to the method of Dixon[65]. In each assay, the compound was tested at a minimum of seven concentrations, in duplicate, to obtain an inhibition curve. The following general procedures were adopted for each assay. In a 96-well microtiter plate, 25 μL of inhibitor solution or buffer was added to 50 μL of substrate. The enzyme solution (25 μL) was added just before the plate was placed in the microtiter plate reader for 1 h at 37 °C. The hydrolysis of the substrate yields p-nitroaniline, which was continuously monitored spectrophotometrically at 405 nm. The maximal initial reaction rates were calculated and expressed as millioptical density per minute."}, "[4]": {"tested_on": "HUVECs", "test": "Production of thrombin on the surfaces of HUVECs", "assay_type": "cell-based, human", "settings": "HUVECs with FVa, FXa, prothrombin", "description": "Thrombin production by HUVECs was quantified as previously described[63],[68]. Briefly, HUVECs were pre-incubated in 300 μL of a solution containing JJ1 in 50 mM Tris-HCl buffer, 100 pM FVa, and 1 nM FXa for 10 min, followed by the addition of prothrombin to a final concentration of 1 μM. After 10 min, duplicate samples (10 μL each) were transferred into a 96-well plate containing 40 μL 0.5 M EDTA in TBS per well to terminate the prothrombin activation. Activated prothrombin was determined by the measurement of the rate of hydrolysis of S-2238 (a thrombin substrate) at 405 nm. Standard curves were prepared with known amounts of purified thrombin."}, "[5]": {"target": "Urokinase (Homo sapiens, UniProt P00749)", "test": "Chromogenic substrate assay, Ki (Dixon)", "assay_type": "biochemical"}, "[6]": {"tested_on": "human plasma", "test": "In vitro PT clotting time", "assay_type": "biochemical", "settings": "for PT / PT (INR): in vitro", "description": "The aPTT and PT were determined using a Thrombotimer (Behnk Elektronik, Norderstedt, Germany) in accordance with the manufacturer’s instructions and as previously described. Briefly, citrated normal human plasma (90 μL) was mixed with 10 μL JJ1 and incubated for 1 min at 37 °C. Subsequently, the aPTT assay reagent (100 μL) was added, the plasma sample was incubated for an additional 1 min at 37 °C, 20 mM CaCl2 (100 μL) was added, and the clotting times were recorded. For the PT assays, citrated normal human plasma (90 μL) was mixed with 10 μL JJ1 stock solution and was incubated for 1 min at 37 °C. The PT assay reagent (200 μL), which had been pre-incubated for 10 min at 37 °C, was subsequently added and the clotting time was recorded. The PT results were expressed in seconds and as International Normalized Ratios (INR): INR = (PT sample/PT control)^ISI, where ISI = international sensitivity index. The aPTT results were also expressed in seconds. All experimental protocols (KNUH 2012-01-010) were approved by the Institutional Review Board of Kyungpook National University Hospitals (Daegu, Republic of Korea)."}, "[7]": {"target": "tPA (Homo sapiens, UniProt P00750)", "sequence (P00750 36-562)": "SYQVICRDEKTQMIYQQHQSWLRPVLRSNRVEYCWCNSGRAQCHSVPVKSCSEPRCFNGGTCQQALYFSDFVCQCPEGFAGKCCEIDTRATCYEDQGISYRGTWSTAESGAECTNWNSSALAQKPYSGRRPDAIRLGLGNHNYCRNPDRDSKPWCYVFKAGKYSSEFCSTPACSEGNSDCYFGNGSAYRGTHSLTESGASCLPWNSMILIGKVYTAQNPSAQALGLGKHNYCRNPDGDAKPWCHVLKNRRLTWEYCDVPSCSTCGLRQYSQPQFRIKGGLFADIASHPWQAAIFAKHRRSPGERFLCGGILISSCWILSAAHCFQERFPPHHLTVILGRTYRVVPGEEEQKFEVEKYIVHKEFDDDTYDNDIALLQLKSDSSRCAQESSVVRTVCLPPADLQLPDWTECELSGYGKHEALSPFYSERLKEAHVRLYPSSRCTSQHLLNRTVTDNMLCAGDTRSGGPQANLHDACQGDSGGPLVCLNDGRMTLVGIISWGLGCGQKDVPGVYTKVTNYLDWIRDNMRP", "test": "Chromogenic substrate assay, Ki (Dixon)", "assay_type": "biochemical"}, "[8]": {"target": "T1, Protein Ca (Homo sapiens, UniProt P04070)", "T1 construct": "thrombin versus trypsin, factor Xa, elastase, plasmin, protein Ca, streptokinase, tPA, and urokinase", "T1 sequence (P04070 212-450 limits assumed)": "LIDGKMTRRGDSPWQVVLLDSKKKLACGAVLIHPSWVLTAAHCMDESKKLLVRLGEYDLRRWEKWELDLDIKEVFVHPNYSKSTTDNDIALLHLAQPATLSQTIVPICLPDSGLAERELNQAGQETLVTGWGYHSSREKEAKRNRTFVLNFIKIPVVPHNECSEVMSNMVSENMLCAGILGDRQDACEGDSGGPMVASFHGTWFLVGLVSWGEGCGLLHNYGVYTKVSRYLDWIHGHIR", "T1 sequence (P04070 43-197 limits assumed)": "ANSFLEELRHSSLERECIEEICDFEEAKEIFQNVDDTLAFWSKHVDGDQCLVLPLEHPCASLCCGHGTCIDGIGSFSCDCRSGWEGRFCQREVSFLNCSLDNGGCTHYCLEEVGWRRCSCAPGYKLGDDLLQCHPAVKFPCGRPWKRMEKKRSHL", "test": "Chromogenic substrate assay, Ki (Dixon)", "assay_type": "biochemical"}, "[9]": {"target": "T2, Factor Xa (Homo sapiens, UniProt P00742)", "T2 construct": "thrombin versus trypsin, factor Xa, elastase, plasmin, protein Ca, streptokinase, tPA, and urokinase; purchased Haematologic Technologies (Essex Junction, VT)", "T2 sequence (P00742 235-488 limits assumed)": "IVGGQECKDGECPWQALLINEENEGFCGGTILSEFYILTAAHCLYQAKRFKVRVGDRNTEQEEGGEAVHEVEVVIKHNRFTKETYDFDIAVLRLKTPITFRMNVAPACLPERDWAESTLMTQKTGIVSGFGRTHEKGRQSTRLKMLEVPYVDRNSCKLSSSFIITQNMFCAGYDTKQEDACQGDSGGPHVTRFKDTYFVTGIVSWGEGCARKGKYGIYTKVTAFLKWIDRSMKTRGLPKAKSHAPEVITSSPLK", "T2 sequence (P00742 41-179 limits assumed)": "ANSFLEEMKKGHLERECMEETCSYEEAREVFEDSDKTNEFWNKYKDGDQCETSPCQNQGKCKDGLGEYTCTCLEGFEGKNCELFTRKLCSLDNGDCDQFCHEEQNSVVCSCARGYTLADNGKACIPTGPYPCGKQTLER", "test": "Chromogenic substrate assay, Ki (Dixon)", "assay_type": "biochemical"}, "[10]": {"target": "T3, Plasmin (Homo sapiens, UniProt P00747)", "T3 construct": "thrombin versus trypsin, factor Xa, elastase, plasmin, protein Ca, streptokinase, tPA, and urokinase", "T3 sequence (P00747 581-810 limits assumed)": "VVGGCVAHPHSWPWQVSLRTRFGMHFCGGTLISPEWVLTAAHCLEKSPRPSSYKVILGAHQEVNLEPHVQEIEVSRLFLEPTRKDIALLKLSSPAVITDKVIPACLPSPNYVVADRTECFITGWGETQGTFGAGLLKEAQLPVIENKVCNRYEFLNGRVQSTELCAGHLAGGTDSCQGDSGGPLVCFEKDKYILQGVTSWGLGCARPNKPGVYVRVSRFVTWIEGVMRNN", "T3 sequence (P00747 97-580 limits assumed)": "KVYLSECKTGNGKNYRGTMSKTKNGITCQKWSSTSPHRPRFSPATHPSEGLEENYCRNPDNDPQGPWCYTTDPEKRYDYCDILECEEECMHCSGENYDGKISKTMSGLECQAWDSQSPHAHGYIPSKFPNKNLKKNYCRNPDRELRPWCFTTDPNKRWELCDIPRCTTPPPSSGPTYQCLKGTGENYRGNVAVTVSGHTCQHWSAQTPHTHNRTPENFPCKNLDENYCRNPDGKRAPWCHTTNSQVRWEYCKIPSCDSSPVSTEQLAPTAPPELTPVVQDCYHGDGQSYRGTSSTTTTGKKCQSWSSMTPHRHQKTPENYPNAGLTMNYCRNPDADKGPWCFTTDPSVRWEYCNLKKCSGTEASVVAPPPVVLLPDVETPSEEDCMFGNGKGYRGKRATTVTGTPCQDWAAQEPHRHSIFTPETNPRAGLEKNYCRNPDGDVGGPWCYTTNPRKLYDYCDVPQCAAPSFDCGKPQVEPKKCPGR", "test": "Chromogenic substrate assay, Ki (Dixon)", "assay_type": "biochemical"}}, "note": "Marks after values point to notes of the source that are not given here."}
{"smiles": "c1ccc2c(NC3CCCC3)nc(Nc3ccncc3)nc2c1", "note": "[JJ1]", "values": [{"measurement": "Growth of thrombi (time to large thrombus formation)", "setting": "[1]; FeCl3-induced thrombosis", "value": "significantly slowed the growth of thrombi"}, {"measurement": "Thrombus size at 60 min after FeCl3-induced endothelial injury", "setting": "[1]", "value": "reduced FeCl3-induced thrombus formation"}, {"measurement": "Tail bleeding time", "setting": "[2]; 0.31 μg/mouse", "value": "30.6 ± 0.8", "unit": "s"}, {"measurement": "Tail bleeding time", "setting": "[2]; 0.61 μg/mouse", "value": "37.2 ± 1.0", "unit": "s"}, {"measurement": "Tail bleeding time", "setting": "[2]; 1.23 μg/mouse", "value": "44.8 ± 1.2", "unit": "s"}, {"measurement": "Tail bleeding time", "setting": "[2]; 3.06 μg/mouse", "value": "52.2 ± 1.4", "unit": "s"}, {"measurement": "Ki", "setting": "[3]", "value": "> 250", "unit": "µM"}, {"measurement": "Production of thrombin", "setting": "[4]", "value": "inhibited the production of thrombin in a dose-dependent manner"}, {"measurement": "Selectivity ratio", "setting": "[5]; K i Urokinase/K i α-thrombin", "value": ">10,000"}, {"measurement": "Ki", "setting": "[5]; Urokinase", "value": "> 250", "unit": "µM"}, {"measurement": "Concentration that doubled the clotting time, PT assay", "setting": "[6]", "value": 1.61, "unit": "µM"}, {"measurement": "PT", "setting": "[6]; 0.05 μM", "value": "12.1 ± 0.2", "unit": "s"}, {"measurement": "PT (INR)", "setting": "[6]; 0.05 μM", "value": 1.04, "unit": "INR"}, {"measurement": "PT", "setting": "[6]; 0.1 μM", "value": "11.7 ± 0.4", "unit": "s"}, {"measurement": "PT (INR)", "setting": "[6]; 0.1 μM", "value": 0.96, "unit": "INR"}, {"measurement": "PT", "setting": "[6]; 0.2 μM", "value": "12.7 ± 0.5", "unit": "s"}, {"measurement": "PT (INR)", "setting": "[6]; 0.2 μM", "value": 1.17, "unit": "INR"}, {"measurement": "PT", "setting": "[6]; 0.5 μM", "value": "15.4 ± 0.4", "unit": "s"}, {"measurement": "PT (INR)", "setting": "[6]; 0.5 μM", "value": "1.86* INR"}, {"measurement": "PT", "setting": "[6]; 1.0 μM", "value": "21.4 ± 0.5", "unit": "s"}, {"measurement": "PT (INR)", "setting": "[6]; 1.0 μM", "value": "4.09* INR"}, {"measurement": "PT", "setting": "[6]; 2.0 μM", "value": "25.8 ± 0.3", "unit": "s"}, {"measurement": "PT (INR)", "setting": "[6]; 2.0 μM", "value": "6.41* INR"}, {"measurement": "PT", "setting": "[6]; 5.0 μM", "value": "26.5 ± 0.4", "unit": "s"}, {"measurement": "PT (INR)", "setting": "[6]; 5.0 μM", "value": "6.83* INR"}, {"measurement": "Selectivity ratio", "setting": "[7]; K i tPA/K i α-thrombin", "value": ">10,000"}, {"measurement": "Ki", "setting": "[7]; tPA", "value": "> 250", "unit": "µM"}, {"measurement": "Selectivity ratio", "setting": "[8]; K i Protein Ca/K i α-thrombin", "value": ">10,000"}, {"measurement": "Ki", "setting": "[8]; Protein Ca", "value": "> 250", "unit": "µM"}, {"measurement": "Ki", "setting": "[9]; Factor Xa", "value": "> 250", "unit": "µM"}, {"measurement": "Selectivity ratio", "setting": "[9]; K i Factor Xa/K i α-thrombin", "value": ">10,000"}, {"measurement": "Selectivity ratio", "setting": "[10]; K i Plasmin/K i α-thrombin", "value": ">10,000"}, {"measurement": "Ki", "setting": "[10]; Plasmin", "value": "> 250", "unit": "µM"}]}
